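Cells were grown in 96-well plates and exposed to each compound for 48 hours at five concentrations; endpoints were interpolated linearly between bracketing concentrations, or set to the highest concentration if not reached. Here, GI50 denotes the concentration required for 50% inhibition of growth.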 Calls of active or inactive are those of the source. Cut-off read from the data, not from the text of the source: active = GI50 up to about 1.1 µM and inactive = higher.
Experiments:
Assay in all cases: NCI tumour cell line growth inhibition, 48 h
OVCAR-4 = system: OVCAR-4
SK-MEL-5 = system: SK-MEL-5
SW-620 = system: SW-620
LXFL 529 = system: LXFL 529
KM12 = system: KM12
K562 = system: K562
U-251 = system: U-251
TK-10 = system: TK-10
M14 = system: M14
SNB-19 = system: SNB-19
HT-29 = system: HT-29
M19-MEL = system: M19-MEL
RPMI-8226 = system: RPMI-8226
Malme-3M = system: Malme-3M
UO-31 = system: UO-31
SK-MEL-28 = system: SK-MEL-28
SF-539 = system: SF-539
DLD-1 = system: DLD-1
XF498 = system: XF498
OVCAR-3 = system: OVCAR-3
HCT-15 = system: HCT-15
HOP-92 = system: HOP-92
UACC-62 = system: UACC-62
MOLT-4 = system: MOLT-4
HCT-116 = system: HCT-116
ACHN = system: ACHN
UACC-257 = system: UACC-257
SK-OV-3 = system: SK-OV-3
OVCAR-8 = system: OVCAR-8
DMS-114 = system: DMS-114
HCC 2998 = system: HCC 2998
A549 = system: A549
786-0 = system: 786-0
SR = system: SR
SK-MEL-2 = system: SK-MEL-2
SF-268 = system: SF-268
NCI-H522 = system: NCI-H522
SN12C = system: SN12C
HOP-62 = system: HOP-62
IGROV-1 = system: IGROV-1
CAKI-1 = system: CAKI-1
DMS-273 = system: DMS-273
SNB-75 = system: SNB-75
COLO 205 = system: COLO 205
HOP-18 = system: HOP-18
SNB-78 = system: SNB-78
NCI-H226 = system: NCI-H226
A498 = system: A498
KM-20L2 = system: KM-20L2
RXF 393 = system: RXF 393
CCRF-CEM = system: CCRF-CEM
NCI-H460 = system: NCI-H460
HL-60 = system: HL-60
OVCAR-5 = system: OVCAR-5
LOX IMVI = system: LOX IMVI
NCI-H23 = system: NCI-H23

SMILES: COc1cc(C2c3cc4c(cc3[C@@H](NCCN(C)C)C3COC(=O)[C@H]23)OCO4)cc(OC)c1O (stereo partly specified)
- GI50 (OVCAR-4): 1980 nM (inactive)
- GI50 (SK-MEL-5): 86.9 nM (active)
- GI50 (SW-620): 153 nM (active)
- GI50 (LXFL 529): 1430 nM (inactive)
- GI50 (KM12): 475 nM (active)
- GI50 (K562): 253 nM (active)
- GI50 (U-251): 35.9 nM (active)
- GI50 (TK-10): 853 nM (active)
- GI50 (M14): 229 nM (active)
- GI50 (SNB-19): 338 nM (active)
- GI50 (HT-29): 536 nM (active)
- GI50 (M19-MEL): 575 nM (active)
- GI50 (RPMI-8226): 455 nM (active)
- GI50 (Malme-3M): 210 nM (active)
- GI50 (UO-31): 149 nM (active)
- GI50 (SK-MEL-28): 284 nM (active)
- GI50 (SF-539): 37.5 nM (active)
- GI50 (DLD-1): 1060 nM (active)
- GI50 (XF498): 120 nM (active)
- GI50 (OVCAR-3): 1050 nM (active)
- GI50 (HCT-15): 147 nM
- GI50 (HOP-92): 23.2 nM (active)

SMILES: CC(=O)O[C@@H]1C2C(=O)OC(=O)C2C2CCC[C@]23O[C@H]13 (stereo partly specified)
- GI50 (OVCAR-4): > 100000 nM (inactive)
- GI50 (UACC-62): > 100000 nM (inactive)
- GI50 (MOLT-4): > 100000 nM (inactive)
- GI50 (HCT-116): > 100000 nM (inactive)
- GI50 (SK-MEL-5): > 100000 nM (inactive)
- GI50 (SW-620): > 100000 nM (inactive)
- GI50 (LXFL 529): > 100000 nM (inactive)
- GI50 (KM12): > 100000 nM (inactive)
- GI50 (K562): > 100000 nM (inactive)
- GI50 (ACHN): > 100000 nM (inactive)
- GI50 (UACC-257): > 100000 nM (inactive)
- GI50 (SK-OV-3): > 100000 nM (inactive)
- GI50 (OVCAR-8): > 100000 nM (inactive)
- GI50 (DMS-114): > 100000 nM (inactive)
- GI50 (HCC 2998): > 100000 nM (inactive)
- GI50 (U-251): > 100000 nM (inactive)
- GI50 (TK-10): > 100000 nM (inactive)
- GI50 (M14): > 100000 nM (inactive)
- GI50 (A549): > 100000 nM (inactive)
- GI50 (SNB-19): > 100000 nM (inactive)
- GI50 (786-0): > 100000 nM (inactive)
- GI50 (M19-MEL): > 100000 nM (inactive)
- GI50 (SR): > 100000 nM (inactive)
- GI50 (SK-MEL-2): > 100000 nM (inactive)
- GI50 (SF-268): > 100000 nM (inactive)
- GI50 (RPMI-8226): > 100000 nM (inactive)
- GI50 (NCI-H522): > 100000 nM (inactive)
- GI50 (SN12C): > 100000 nM (inactive)
- GI50 (Malme-3M): > 100000 nM (inactive)
- GI50 (HOP-62): > 100000 nM (inactive)
- GI50 (UO-31): > 100000 nM (inactive)
- GI50 (IGROV-1): > 100000 nM (inactive)
- GI50 (CAKI-1): > 100000 nM (inactive)
- GI50 (DMS-273): > 100000 nM (inactive)
- GI50 (SK-MEL-28): > 100000 nM (inactive)
- GI50 (SF-539): > 100000 nM (inactive)
- GI50 (DLD-1): > 100000 nM (inactive)
- GI50 (SNB-75): > 100000 nM (inactive)
- GI50 (COLO 205): > 100000 nM (inactive)
- GI50 (HOP-18): > 100000 nM (inactive)
- GI50 (SNB-78): > 100000 nM (inactive)
- GI50 (NCI-H226): > 100000 nM (inactive)
- GI50 (A498): > 100000 nM (inactive)
- GI50 (KM-20L2): > 100000 nM (inactive)
- GI50 (OVCAR-3): > 100000 nM (inactive)
- GI50 (RXF 393): > 100000 nM (inactive)
- GI50 (HCT-15): > 100000 nM
- GI50 (CCRF-CEM): > 100000 nM (inactive)
- GI50 (NCI-H460): > 100000 nM (inactive)
- GI50 (HL-60): > 100000 nM (inactive)

SMILES: COc1cc(CNc2ccc(C)cc2)cc(OC)c1OC
- GI50 (MOLT-4): 175 nM (active)
- GI50 (SK-MEL-5): 923 nM (active)
- GI50 (SW-620): 110 nM (active)
- GI50 (LXFL 529): 460 nM (active)
- GI50 (K562): 148 nM (active)
- GI50 (UACC-257): 7050 nM (inactive)
- GI50 (SK-OV-3): 251 nM (active)
- GI50 (OVCAR-8): 650 nM (active)
- GI50 (DMS-114): 225 nM (active)
- GI50 (OVCAR-5): 1020 nM (active)
- GI50 (U-251): 252 nM (active)
- GI50 (A549): 423 nM (active)
- GI50 (SNB-19): 356 nM (active)
- GI50 (786-0): 376 nM (active)
- GI50 (M19-MEL): 252 nM (active)
- GI50 (SK-MEL-2): 417 nM (active)
- GI50 (SF-268): 615 nM (active)
- GI50 (RPMI-8226): 500 nM (active)
- GI50 (HOP-62): 440 nM (active)
- GI50 (UO-31): 843 nM (active)
- GI50 (IGROV-1): 577 nM (active)
- GI50 (DMS-273): 92.5 nM (active)
- GI50 (DLD-1): 375 nM (active)
- GI50 (SNB-75): 210 nM (active)
- GI50 (COLO 205): 151 nM (active)
- GI50 (LOX IMVI): 460 nM (active)
- GI50 (XF498): 1290 nM (inactive)
- GI50 (KM-20L2): 159 nM (active)
- GI50 (NCI-H23): 277 nM (active)
- GI50 (OVCAR-3): 179 nM (active)
- GI50 (RXF 393): 301 nM (active)
- GI50 (CCRF-CEM): 259 nM (active)
- GI50 (NCI-H460): 471 nM (active)
- GI50 (HL-60): 94.8 nM (active)

Source: ChEMBL document CHEMBL1201862, “PubChem BioAssay data set” (2004)
